Data: patent US20200024278A1, “COMPOSITION COMPRISING ANTIBIOTIC COMPOUND AND AN HETEROCYCLIC COMPOUND AND THEIR USE IN PREVENTING OR TREATING BACTERIAL INFECTIONS” (MUTABILIS, priority 2016, published 2020)

Tests used:
[1] = test system: ECL P99; assay: Fractional Inhibitory Concentration Index, checkerboard assay; format: cell-based, E. cloacae
Method: (§1) Method 2: Determination of the Fractional Inhibitory Concentration Index
(§2) Serial 2-fold dilutions of each antibiotic tested were prepared in ca-MHB and mixed in each well of a 96-well microtiter plate so that each row (and column) contained a fixed amount of one agent and increasing amounts of the second agent. The range of drug concentrations used in the checkerboard analysis was such that the dilution range encompassed the MIC for each drug used in the analysis. Broth microdilution plates were inoculated with each strain (Table 3) to yield 5.10^5 CFU/mL in a 100 μL final volume and incubated for 18 h at 35° C. in ambient air. Assays including Fosfomycin were supplemented with 25 μg/ml of Glucose-6-phosphate. MICs were determined after overnight incubation, and the fractional inhibitory concentration (FIC) index was calculated for each well. The FIC index (FICI) was calculated for each combination according to the equation FICI=FICa+FICb=(MIC of drug A in combination/MIC of drug A alone)+(MIC of drug B in combination/MIC of drug B alone). The FICI was interpreted as follows: synergy, FICI […]; indifference, 0.5<FIC<4; and antagonism, FICI>4. The checkerboard assays were performed in duplicate.

[2] = test system: ECO UFR39; assay: MIC, broth microdilution (CLSI), substance alone or ATB combined with compound at 4 or 8 μg/mL; format: cell-based, E. coli; conditions: Escherichia coli; substance alone; ECO UFR39; read-out: MIC
How it was run: (§3)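 CLSI M7-A7 broth microdilution. ca-MHB, 5·10^5 CFU/mL log-phase cells, 16-20 h, 35° C, ambient air. Fosfomycin wells + 25 μg/ml glucose-6-phosphate. Visual MIC read.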

[3] = test system: ECO 190317; assay: as above; format: cell-based, E. coli; conditions: Escherichia coli; substance alone; ECO 190317; read-out: MIC
How it was run: as §3

[4] = test system: ECO 190317; assay: Fractional Inhibitory Concentration Index, checkerboard assay; format: cell-based, E. coli
Method: as §1, §2

[5] = test system: PAE UFR48; assay: as above; format: cell-based, P. aeruginosa
Method: as §1, §2

[6] = test system: PAE UFR90; assay: as above; format: cell-based, P. aeruginosa
Method: as §1, §2

[7] = test system: SPN 49619; assay: MIC, broth microdilution (CLSI), substance alone or ATB combined with compound at 4 or 8 μg/mL; format: cell-based, S. pneumoniae; conditions: SPN 49619; for MIC ATB combined with compound: compound @8 μg/ml
How it was run: as §3

[8] = test system: PAE UFR48; assay: as above; format: cell-based, P. aeruginosa; conditions: PAE UFR48; for MIC ATB combined with compound: compound @8 μg/ml
How it was run: as §3

[9] = test system: PAE 105250; assay: as above; format: cell-based, P. aeruginosa; conditions: PAE 105250; for MIC ATB combined with compound: compound @8 μg/ml
How it was run: as §3

[10] = test system: PAE UFR90; assay: as above; format: cell-based, P. aeruginosa; conditions: PAE UFR90; for MIC ATB combined with compound: compound @8 μg/ml
How it was run: as §3

[11] = test system: SAU 29213; assay: as above; format: cell-based, S. aureus; conditions: for MIC ATB combined with compound: compound @8 μg/ml, SAU 29213
How it was run: as §3

[12] = test system: KPN BAA-1898; assay: as above; format: cell-based, K. pneumoniae; conditions: Klebsiella pneumoniae, BAA1898; substance alone; KPN BAA-1898; read-out: MIC
Method: (§4) Compounds of the present invention were assessed against genotyped bacterial strains alone or in combination with an antibacterial. In the assays, MICs of said compounds or combination of antibiotics with fixed concentrations of said compounds (4 or 8 μg/mL) were determined by the broth microdilution method according to the Clinical Laboratory Standards Institute (CLSI-M7-A7). Briefly, compounds alone according to the invention were prepared in DMSO and spotted (2 μL each) on sterile polystyrene plates (Corning, 3788). Combinations of compounds and antibiotics dilutions were prepared in DMSO and spotted (1 μL each) on sterile polystyrene plates (Corning, 3788). Log phase bacterial suspensions were adjusted to a final density of 5·10^5 CFU/mL in cation-adjusted Mueller-Hinton broth (ca-MHB; Becton-Dickinson and Company) and added to each well (98 μL). Assays including Fosfomycin were supplemented with 25 μg/ml of Glucose-6-phosphate. Microplates were incubated for 16-20 h at 35° C. in ambient air. The MIC of the compounds was defined as the lowest concentration of said compounds that prevented bacterial growth as read by visual inspection. The MIC of ATB at each compound concentration was defined as the lowest concentration of ATB that prevented bacterial growth as read by visual inspection.

[13] = test system: KPN UFR42; assay: as above; format: cell-based, K. pneumoniae; conditions: Klebsiella pneumoniae; substance alone; KPN UFR42; read-out: MIC
Method: as §4

[14] = test system: KPN UFR68; assay: Fractional Inhibitory Concentration Index, checkerboard assay; format: cell-based, K. pneumoniae
Method: as §1, §2

[15] = test system: ECL P99; assay: MIC, broth microdilution (CLSI), substance alone or ATB combined with compound at 4 or 8 μg/mL; format: cell-based, E. cloacae; conditions: Enterobacter cloacae; substance alone; ECL P99; read-out: MIC
How it was run: as §3

[16] = Pseudomonas aeruginosa, substance alone, read-out: MIC

- MIC [2]: 4 µg/mL
- MIC [3]: 4 µg/mL
- MIC ATB combined with compound ([7]; ATB ATM): <=0.031 μg/mL
- MIC ATB combined with compound ([7]; ATB FEP): <0.031 µg/mL
- MIC ATB combined with compound ([7]; ATB FOS): <0.125 µg/mL
- MIC ATB combined with compound ([7]; ATB MEM): <0.031 µg/mL
- MIC ATB combined with compound ([7]; ATB PIP): <0.031 µg/mL
- MIC ([7]; Streptococcus pneumoniae, substance alone, read-out: MIC): 4 µg/mL
- MIC ATB combined with compound ([8]; ATB ATM): 16 µg/mL
- MIC ATB combined with compound ([8]; ATB FEP): 32 µg/mL
- MIC ATB combined with compound ([8]; ATB FOS): 32 µg/mL
- MIC ATB combined with compound ([8]; ATB MEM): 4 µg/mL
- MIC ATB combined with compound ([8]; ATB PIP): >32 µg/mL
- MIC [8, 16]: > 128 µg/mL
- MIC ATB combined with compound ([9]; ATB ATM): 8 µg/mL
- MIC ATB combined with compound ([9]; ATB FEP): 4 µg/mL
- MIC ATB combined with compound ([9]; ATB FOS): 128 µg/mL
- MIC ATB combined with compound ([9]; ATB MEM): 2 µg/mL
- MIC ATB combined with compound ([9]; ATB PIP): >32 µg/mL
- MIC [9, 16]: > 32 µg/mL
- MIC ATB combined with compound ([10]; ATB ATM): 16 µg/mL
- MIC ATB combined with compound ([10]; ATB FEP): 4 µg/mL
- MIC ATB combined with compound ([10]; ATB FOS): 8 µg/mL
- MIC ATB combined with compound ([10]; ATB MEM): 2 µg/mL
- MIC ATB combined with compound ([10]; ATB PIP): >32 µg/mL
- MIC [10, 16]: > 128 µg/mL
- MIC ATB combined with compound ([11]; ATB ATM): <0.031 µg/mL
- MIC ATB combined with compound ([11]; ATB FEP): <=0.031 μg/mL
- MIC ATB combined with compound ([11]; ATB FOS): 0.25 µg/mL
- MIC ATB combined with compound ([11]; ATB MEM): <0.031 µg/mL
- MIC ATB combined with compound ([11]; ATB PIP): <0.031 µg/mL
- MIC ([11]; Staphylococcus aureus, substance alone, SAU 29213 (MSSA 29213), read-out: MIC): 8 µg/mL
- MIC [12]: 8 µg/mL
- MIC [13]: 16 µg/mL
- MIC [15]: 8 µg/mL
SMILES: O=C1N2CC(c3cccnc3)=CC(C2)N1OS(=O)(=O)[O-].[Na+] (stereo not drawn) [Example 8, sodium [3-(3-pyridyl)-7-oxo-1,6-diazabicyclo[3.2.1]oct-3-en-6-yl] sulfate]
- FIC index min ([1]; compound +ATM): 0.53
- FIC index min ([1]; compound +FEP): 0.25
- FIC index min ([1]; compound +FOS): ≤0.28
- FIC index min ([1]; compound +MEM): 0.75
- FIC index min ([1]; compound +PIP): 0.16
- FIC index min ([4]; compound +ATM): 0.13
- FIC index min ([4]; compound +FEP): 0.13
- FIC index min ([4]; compound +FOS): 0.63
- FIC index min ([4]; compound +MEM): 0.57
- FIC index min ([4]; compound +PIP): ≤0.14
- FIC index min ([5]; compound +ATM): ≤0.13
- FIC index min ([5]; compound +FEP): ≤0.5
- FIC index min ([5]; compound +FOS): ≤0.25
- FIC index min ([5]; compound +MEM): 1.0
- FIC index min ([5]; compound +PIP): ≤0.31
- FIC index min ([6]; compound +ATM): ≤0.75
- FIC index min ([6]; compound +FEP): ≤0.25
- FIC index min ([6]; compound +FOS): ≤0.62
- FIC index min ([6]; compound +MEM): ≤0.56
- FIC index min ([6]; compound +PIP): ≤0.25
- FIC index min ([14]; compound +ATM): ≤0.07
- FIC index min ([14]; compound +FEP): ≤0.08
- FIC index min ([14]; compound +FOS): 0.75
- FIC index min ([14]; compound +MEM): ≤0.07
- FIC index min ([14]; compound +PIP): ≤0.07
